By T/C is commonly meant the result in the treated group divided by that in the control group, in per cent. One may read the IC50 as the concentration that inhibits the measured activity by half.

The structures appear in SMILES notation. “And” between values parts separate entries of the source, which are not always exact repeats. Equal entries are not always repeated.

The subject of one experiment is Mus musculus. Kind of experiment: In vivo anti tumor activity towards P388 leukemia in BDFl mouse expressed as T/C. It counts as functional.
Conditions: not given
In turn, `CN1CCN(c2nc(-c3ccccc3)cc3ccccc23)CC1` returned a T/C of 160%.

Another experiment relates to HCT-15. The experiment can be described thus: In vitro cytotoxicity against HCT 15 (human colon) tumor cell line. It counts as functional, cell-based.
Conditions: not given
As for `Cc1ccc2c(S)nc(-c3ccccc3)cc2c1`, the IC50 was 19.1 µM and 41.9 µM.

Another experiment relates to SK-OV-3. Kind of experiment: In vitro cytotoxicity against SKOV-3 (human ovarian) tumor cell line. Format: functional, cell-based. Particulars: Homo sapiens, SK-OV-3.
As to `Oc1nc(-c2ccc3c(c2)OCO3)cc2ccccc12`, the IC50 stood at 77.6 µM. This lies in the double-digit micromolar range.

In the case of `Cc1ccc(-c2cc3cc(C)ccc3c(O)n2)cc1`, the half-inhibitory concentration (IC50) worked out at 4.9 µM.

With `CN1CCN(c2nc(-c3ccccc3)cc3c(N(C)C)cccc23)CC1`, the half-inhibitory concentration (IC50) was found to be 11.2 µM.

`Oc1nc(-c2ccc(C(F)(F)F)cc2)cc2ccccc12`: the IC50 is 87.3 µM. Against the preceding compound, the IC50 is about 7.8-fold higher.

`Cc1ccc2c(N3CCN(C)CC3)nc(-c3ccccc3C)cc2c1` showed a 50% inhibitory concentration (IC50) of 5.13 µM. Compared with the last compound, the IC50 is about 17-fold lower.

As for `Cc1ccc(-c2cc3cc(C)ccc3c(N3CCN(C)CC3)n2)cc1`, the IC50 was 7.08 µM. The IC50 values of the last two compounds are within 1.5-fold of each other.

For `COc1ccc(-c2cc3cc(C)ccc3c(N3CCN(C)CC3)n2)cc1`, the IC50 is 7.94 µM.

`Cc1ccc2c(O)nc(-c3ccccc3)cc2c1` yielded a 50% inhibitory concentration (IC50) of 1.7 µM.

Take `Cc1ccc2c(N3CCN(C)CC3)nc(-c3ccc(Cl)cc3)cc2c1`: half-maximal inhibition (IC50) required 5.75 µM.

In turn, `COc1ccc(-c2cc3c(N(C)C)cccc3c(N3CCN(C)CC3)n2)cc1` displayed a half-maximal inhibitory concentration (IC50) of 13.2 µM.

The compound `Cc1ccc2c(S)nc(-c3ccccc3)cc2c1` displayed an IC50 of 34.7 µM. Against the preceding compound, the IC50 is about 2.6-fold higher.

Compound `CN1CCN(c2nc(-c3ccccc3)cc3ccccc23)CC1` registered a concentration for half-maximal inhibition (IC50) of 22.4 µM.

The experiment is the same for the next values; noted with them: sk-ov-3.
For the compound `Cc1ccc2c(S)nc(-c3ccccc3)cc2c1`, the IC50 turned out to be 56.2 µM.

The next experiment relates to SK-MEL-2. The experiment can be described thus: In vitro cytotoxicity against SK-MEL-2 (human melanoma) tumor cell line. Format: functional, cell-based. As to conditions: Homo sapiens, SK-MEL-2.
The compound `Oc1nc(-c2ccc3c(c2)OCO3)cc2ccccc12` registered an IC50 of 25.1 µM.

Consider `Cc1ccc(-c2cc3cc(C)ccc3c(O)n2)cc1`, for which the IC50 is 7.76 µM.

For the compound `CN1CCN(c2nc(-c3ccccc3)cc3c(N(C)C)cccc23)CC1`, the half-inhibitory concentration (IC50) worked out at 7.08 µM. This IC50 and that of the compound before are within 1.5-fold of each other.

Consider `Cc1ccc2c(N3CCN(C)CC3)nc(-c3ccccc3C)cc2c1`, for which the IC50 stood at 3.38 µM.

Turning to `Cc1ccc(-c2cc3cc(C)ccc3c(N3CCN(C)CC3)n2)cc1`, the IC50 was 2.4 µM.

`COc1ccc(-c2cc3cc(C)ccc3c(N3CCN(C)CC3)n2)cc1` registered an IC50 of 3.71 µM. Against the preceding compound, the IC50 is about 1.5-fold higher.

Consider `Cc1ccc2c(O)nc(-c3ccccc3)cc2c1`, for which the IC50 stood at 1.58 µM. This IC50 lies about 2.3-fold lower than the previous one.

For the compound `Cc1ccc2c(N3CCN(C)CC3)nc(-c3ccc(Cl)cc3)cc2c1`, the IC50 was 2.4 µM.

In turn, `COc1ccc(-c2cc3c(N(C)C)cccc3c(N3CCN(C)CC3)n2)cc1` registered an IC50 of 3.98 µM.

On to `Cc1ccc2c(S)nc(-c3ccccc3)cc2c1`, for which 19.5 µM corresponded to half-maximal inhibition (IC50). Against the preceding compound, the IC50 is about 4.9-fold higher.

In turn, `CN1CCN(c2nc(-c3ccccc3)cc3ccccc23)CC1` showed a 50% inhibitory concentration (IC50) of 11.8 µM.

The same experiment, now with this note: sk-mel-2.
The compound `Cc1ccc2c(S)nc(-c3ccccc3)cc2c1` had an IC50 of 25.1 µM.

Another experiment concerns A549. Kind of experiment: Tested for in vitro cytotoxicity against A 549 (human lung) tumor cell line using sulforhodamine B (SRB) assay. As to conditions: Homo sapiens, A549. Format: functional, cell-based. (In general: Sulforhodamine B stains cellular protein and so reports cell mass.)
For the compound `Cc1ccc(-c2cc3cc(C)ccc3c(O)n2)cc1`, inhibition was half-maximal at 5.62 µM (IC50).

For `CN1CCN(c2nc(-c3ccccc3)cc3c(N(C)C)cccc23)CC1`, the IC50 was found to be 10 µM. Against the preceding compound, the IC50 is about 1.8-fold higher.

In turn, `Cc1ccc2c(N3CCN(C)CC3)nc(-c3ccccc3C)cc2c1` came in with a half-inhibitory concentration (IC50) of 7.59 µM.

Take `Cc1ccc(-c2cc3cc(C)ccc3c(N3CCN(C)CC3)n2)cc1`: the IC50 came to 7.24 µM.

On to `COc1ccc(-c2cc3cc(C)ccc3c(N3CCN(C)CC3)n2)cc1`, for which the IC50 stood at 7.41 µM.

As to `Cc1ccc2c(O)nc(-c3ccccc3)cc2c1`, the IC50 amounted to 1.32 µM.

`Cc1ccc2c(N3CCN(C)CC3)nc(-c3ccc(Cl)cc3)cc2c1` returned an IC50 of 3.19 µM.

Compound `COc1ccc(-c2cc3c(N(C)C)cccc3c(N3CCN(C)CC3)n2)cc1` had an IC50 of 1.82 µM. Compared with the last compound, the IC50 is about 1.8-fold lower.

The compound `Cc1ccc2c(S)nc(-c3ccccc3)cc2c1` yielded an IC50 of 8.51 µM.

The compound `CN1CCN(c2nc(-c3ccccc3)cc3ccccc23)CC1` yielded an IC50 of 25.1 µM. This IC50 lies about 2.9-fold higher than the previous one.

The same experiment, now with this note: a549.
`Cc1ccc2c(S)nc(-c3ccccc3)cc2c1` displayed an IC50 of 11 µM.

Another experiment relates to HCT-15 (Homo sapiens). The experiment can be described thus: In vitro cytotoxicity against HCT 15 (human colon) tumor cell line.
Conditions: not given
In turn, `Oc1nc(-c2ccc3c(c2)OCO3)cc2ccccc12` gave an IC50 of 2.69 µM. This counts as single-digit micromolar.

The compound `Cc1ccc(-c2cc3cc(C)ccc3c(O)n2)cc1` gave an IC50 of 11.2 µM. Against the preceding compound, the IC50 is about 4.2-fold higher.

In the case of `CN1CCN(c2nc(-c3ccccc3)cc3c(N(C)C)cccc23)CC1`, inhibition was half-maximal at 9.55 µM (IC50).

`Cc1ccc2c(N3CCN(C)CC3)nc(-c3ccccc3C)cc2c1` came in with a half-inhibitory concentration (IC50) of 6.61 µM.

`Cc1ccc(-c2cc3cc(C)ccc3c(N3CCN(C)CC3)n2)cc1` registered an IC50 of 4.47 µM. The IC50 values of the last two compounds are within 1.5-fold of each other.

The compound `COc1ccc(-c2cc3cc(C)ccc3c(N3CCN(C)CC3)n2)cc1` yielded an IC50 of 7.41 µM.

`Cc1ccc2c(O)nc(-c3ccccc3)cc2c1` showed a concentration for half-maximal inhibition (IC50) of 0.76 µM.

`Cc1ccc2c(N3CCN(C)CC3)nc(-c3ccc(Cl)cc3)cc2c1` registered a 50% inhibitory concentration (IC50) of 4.07 µM.

`COc1ccc(-c2cc3c(N(C)C)cccc3c(N3CCN(C)CC3)n2)cc1`: the IC50 turned out to be 10.7 µM.

As for `CN1CCN(c2nc(-c3ccccc3)cc3ccccc23)CC1`, inhibition was half-maximal at 18.6 µM (IC50). This IC50 lies about 1.7-fold higher than the previous one.

For another experiment, the system named is HCT-15. Kind of experiment: Tested for in vitro cytotoxicity against HCT 15 (human colon) tumor cell line using sulforhodamine B (SRB) assay; not active (> 100 uM).
Conditions: not given
Format: functional, cell-based.
For the compound `Oc1nc(-c2ccc(C(F)(F)F)cc2)cc2ccccc12`, the IC50 result was “Not Active”.

The subject of the next experiment is XF498 (Homo sapiens). Kind of experiment: In vitro cytotoxicity against XF498 (human CNS) tumor cell line.
Conditions: not given
`Oc1nc(-c2ccc3c(c2)OCO3)cc2ccccc12` displayed an IC50 of 17.8 µM.

In turn, `Cc1ccc(-c2cc3cc(C)ccc3c(O)n2)cc1` displayed an IC50 of 35.5 µM.

On to `CN1CCN(c2nc(-c3ccccc3)cc3c(N(C)C)cccc23)CC1`, for which the IC50 is 19.9 µM. This IC50 is about 1.8-fold lower than that of the compound before.

In the case of `Cc1ccc2c(N3CCN(C)CC3)nc(-c3ccccc3C)cc2c1`, the IC50 was determined as 77.6 µM.

Take `Cc1ccc(-c2cc3cc(C)ccc3c(N3CCN(C)CC3)n2)cc1`: the IC50 came to 8.32 µM.

Take `COc1ccc(-c2cc3cc(C)ccc3c(N3CCN(C)CC3)n2)cc1`: half-maximal inhibition (IC50) required 9.33 µM. The IC50 values of the last two compounds are within 1.5-fold of each other.

Regarding `Cc1ccc2c(O)nc(-c3ccccc3)cc2c1`, the IC50 was found to be 5.13 µM.

As for `Cc1ccc2c(N3CCN(C)CC3)nc(-c3ccc(Cl)cc3)cc2c1`, the IC50 worked out at 6.03 µM.

In turn, `COc1ccc(-c2cc3c(N(C)C)cccc3c(N3CCN(C)CC3)n2)cc1` gave an IC50 of 6.17 µM.

`CN1CCN(c2nc(-c3ccccc3)cc3ccccc23)CC1` yielded an IC50 of 37.1 µM.

For another experiment, the system named is A549. The experiment can be described thus: Tested for in vitro cytotoxicity against A 549 (human lung) tumor cell line using sulforhodamine B (SRB) assay; not active (> 100 uM). Format: functional, cell-based.
Conditions: not given
Consider `Oc1nc(-c2ccc3c(c2)OCO3)cc2ccccc12`, for which the IC50 result is given as “Not Active”.

On to `Oc1nc(-c2ccc(C(F)(F)F)cc2)cc2ccccc12`, for which the IC50 result was “Not Active”.

A further experiment relates to HCT-15 (Homo sapiens). Kind of experiment: Tested for in vitro cytotoxicity against HCT 15 (human colon) tumor cell line using sulforhodamine B (SRB) assay; not active (> 100 uM).
Conditions: not given
With `Oc1nc(-c2ccc(C(F)(F)F)cc2)cc2ccccc12`, the IC50 entry is on record as “Not Active”.

The subject of the next experiment is SK-MEL-2. The experiment can be described thus: Tested for in vitro cytotoxicity against SK-MEL-2 (human melanoma) tumor cell line using sulforhodamine B (SRB) assay; not active (> 100 uM). It counts as functional, cell-based.
Conditions: not given
As to `Oc1nc(-c2ccc(C(F)(F)F)cc2)cc2ccccc12`, the IC50 result is on record as “Not Active”.

The subject of a further experiment is XF498. The experiment can be described thus: In vitro cytotoxicity against XF498 (human CNS) tumor cell line.
Conditions: not given
It counts as functional, cell-based.
In the case of `Cc1ccc2c(S)nc(-c3ccccc3)cc2c1`, the IC50 was 9.12 µM and 75.9 µM.

(Values after ChEMBL document CHEMBL1130973, “Synthesis and biological evaluation of 3-arylisoquinolines as antitumor agents” (Bioorg Med Chem Lett, 1998).)
